In brackets after ≈: the same amount, converted by molar mass. Where two headings read alike, the source gives them in different places.
Key:
[1] = system: A549 Sentinel Line; test: Sentinel Line reporter assay (beta-gal, FACS); format: cell-based, human; settings: A549 sentinel line, with Gemcitabine, 40 hrs
Protocol: The expression level of beta-galactosidase gene in sentinel lines was determined by using a fluorescent substrate fluorescein di-B-D-Galactopyranside (FDG, Marker Gene Tech, #M0250) introduced into cells by hypotonic shock. Cleavage by beta-galactosidase results in the production of free fluorescein, which is unable to cross the plasma membrane and is trapped inside the beta-gal positive cells. Briefly, the cells to be analyzed are trypsinized, and resuspended in PBS containing 2 mM FDG (diluted from a 10 mM stock prepared in 8:1:1 mixture of water: ethanol: DMSO). The cells were then shocked for 4 minutes at 37° C. and transferred to FACS tubes containing cold 1×PBS on ice. Samples were kept on ice for 30 minutes and analyzed by FACS in FLI channel.
Sentinel Line cells with beta-galactosidase reporter gene were plated at 1×10^5 cells/10 cm dish. […] After 40 hrs, the cells were trypsinized and the expression level of reporter gene was determined by FDG loading.
The reporter activity was measured by FACS analysis.

[2] = system: VEGF; test: VEGF secretion in tumor cells; format: cell-based; settings: FIG. 8
[3] = system: HIF-1α; test: HIF-1α induced under normoxia by PHD inhibitor L-mimosone, Hep3B Western blot; format: cell-based, human; settings: 200 μM L-mimosone, 18 h
Protocol: Abundance of HIF-1α and β-actin was determined by western blotting.

[4] = system: Panc-1 human pancreatic xenograft; test: Panc-1 human pancreatic tumor xenograft in nude mice; format: in vivo; settings: Panc-1; BNC-4 15 mg/ml s.c. pump; Gemcitabine 40 mg/kg q3d×4
Excerpt: (§1) Female nude mice (nu/nu) between 5 and 6 weeks of age weighing approximately 20 g were implanted subcutaneously (s.c.) by trocar with fragments of human tumors harvested from s.c. grown tumors in nude mice hosts. […] Each group contains 8-10 mice, each of which was ear tagged and followed throughout the experiment.
(§2) The administration of drugs or controls began the day the animals were pair-matched (Day 1). […] Mice were weighed and tumor measurements were obtained using calipers twice weekly, starting Day 1. These tumor measurements were converted to mg tumor weight by standard formula, (W^2×L)/2. The experiment is terminated when the control group tumor size reached an average of about 1 gram. Upon termination, the mice were weighed, sacrificed and their tumors excised. The tumors were weighed and the mean tumor weight per group was calculated.
(§3) The control animals received pumps containing vehicle (50% DMSO in DMEM). The mice treated with standard chemotherapy agent received intra-peritoneal injections of Gemcitabine at 40 mg/kg every 3 days for 4 treatments (q3d×4). Each data point represent average tumor weight (n=8) and error bars indicate SEM.
as §3

[5] = system: Caki-1 human renal cancer xenograft; format: in vivo, nude mice; settings: Caki-1
Excerpt: as §1, §2

[6] = target: T1, Na+/K+-ATPase (Canis lupus familiaris, UniProt P50997); test: Na+/K+-ATPase inhibition; format: biochemical, dog; settings: read-out: IC50 for inhibition of Na+/K+-ATPase
T1 construct: enzyme preparation from dog kidney (Sigma); purchased Sigma; host or cells: dog kidney tissue
Protocol: (§4) Anti-prolerafitive IC50 values were determined by MTS assay using an A549 cell line. Na^+/K^+-ATPase inhibition IC50 values were obtained using enzyme preparation from dog kidney (Sigma).

[7] = system: A549 cell line; test: anti-proliferation MTS assay in A549 cell line; format: cell-based; settings: Homo sapiens
Protocol: as §4

[8] = system: HIF-1α; test: Western blot using anti-HIF-1α antibody (Example XVI); format: cell-based
[9] = system: panel of 10 cancer cell lines; test: cytotoxicity against a panel of 10 cancer cell lines; format: cell-based; settings: read-out: median IC50
[10] = effective plasma concentration and effective oral dose in patients; format: in vivo; settings: Homo sapiens, cancer indications, 1.5 to 3 times that of cardiac indications, read-out: median effective concentration (EC50) of free drug
[11] = steady state serum level of about 50 ng/mL, xenograft nude mouse model
[12] = system: Na+/K+-ATPase; settings: Erdmann E 1978; cited from earlier work
[13] = cited from earlier work
[14] = at therapeutic plasma level; cited from earlier work
[15] = cited from earlier work; remark: listed apart in the source
[16] = system: rats; settings: cited from earlier work
[17] = system: cats; settings: cited from earlier work
[18] = 12 healthy individuals, 2×0.5 mg for 8 days, radio-immunoassay

C[C@@H]1OC(OC2C=C3CCC4C(CC[C@]5(C)[C@@H](c6ccc(=O)oc6)CC[C@]45O)[C@@]3(C)CC2)[C@H](O)[C@H](O)[C@H]1O (stereo partly drawn) [BNC-4, proscillaridin]
effect on Gemcitabine-induced reporter activity [1]: significantly shift the reporter activity to the left
secretion of VEGF in tumor cells [2]: directly or indirectly inhibits
HIF-1α accumulation induced by L-mimosone [3]: eliminated HIF-1α accumulation by L-mimosone
TGI [4]: about 87%
TGI ([5]; BNC-4 5 mg/ml s.c. pump): 43%
TGI ([5]; BNC-4 15 mg/ml s.c. pump): 73%
IC50 [6]: ~130 nM
IC50 [7]: ~2.1 nM
HIF-1α expression ([8]; 0.1 μM): completely inhibits
HIF-1α expression ([8]; 1 μM): completely inhibits
IC50 [9]: ~23 nM
EC50 [10]: 1.2 to 2.5 ng/mL (≈ 2.26 to 4.71 nM)
TGI (tumor growth inhibition) [11]: greater than 60%
order of Na+/K+-ATPase-inhibition [12]: Ouabain<Digoxin<Proscillaridin
Tmax [13, 18]: 48 ± 30 min
median AUC [13, 18]: 385.0 ± 43.6 ng·h/mL
median Cmax [13, 18]: 23.5 ± 2.6 ng/mL
plasma half-life in human ([13]; according to the literature): about 40 hours
measurable unconjugated drug as share of the administered quantity ([13]; after oral administration): 7%
median plasma half-life (T1/2) ([13]; cardiac patients): up to 49 hours
absolute bioavailability ([13]; dosage form with acid-resistant (enteric) coating): about 35%
Volume-of-Distribution (VD) ([13]; in vivo): 562 L
daily clearance ([13]; in vivo): ~35%
drug and its metabolites excreted by the bile ([13]; in vivo): Greater than 99%
total level of metabolism ([13]; in vivo): > 95%
unchanged drug excreted by the kidneys ([13]; in vivo): less than 1%
time of second, longer-lasting blood level peak ([13]; oral): about 1 hour
time of third plasma peak after dosing ([13]; oral): about 10 hours
higher absorption with decreased stomach acid production ([13]; patients taking antacids): up to 60%
oral absorption, accepted median ([13]; simple oral formulations): about 20%
bound to plasma protein [14]: about 85%
tolerability in cancer patients ([15]; 0.25 to 0.5 mg/d i.v. for four days before surgery, 50 patients): well tolerated by all cancer patients with no appearance of either gastrointestinal or cardiac side effects
patients exhibiting side-effects ([15]; 47 clinical studies, 3740 patients): about 6.3%
reported cases where therapy could be resumed after a brief hiatus ([15]; 47 clinical studies): > 95%
patients taken off the treatment for negative side effects ([15]; 1067 patients observed for up to 3 years): 0.7%
well tolerated dose ([15]; cardiac patients): up to 1.5 mg/d
well tolerated dose ([15]; cardiac patients, listed as Proscillaridin A): ~1.5 mg/day
well tolerated dose ([15]; cardiologically-normal individuals): up to 3.5 mg/d
dose producing typical intoxication symptoms ([15]; healthy individuals): above 4 mg p.o./d
side effects ([15]; healthy volunteers, 1.5 mg daily for 20 days): no negative side effects
average level of side effects in clinical reports ([15]; nausea, seasickness, headache, vomiting, stomach cramps, diarrhea): 5%
long-term or late-appearing chronic toxicity ([15]; review of a total of 3740 patients): none of these cases noted any long-term or late-appearing chronic toxicity
LD50 p.o. ([16]; adult): 0.25 mg/kg
LD50 p.o. ([16]; young animals (female)): 76 mg/kg
intravenous toxicity [17]: 0.193 mg/kg
